From patent US9441012B2, “Fluorinated epoxyketone-based compounds and uses thereof as proteasome inhibitors” (FLUORINOV PHARMA INC., priority 2012, dated 2016)

Experiments:
Experiment in all cases: NCI 60 human tumor cell line screen (SRB)
Type in all cases: cell-based
MDA-MB-468 = MDA-MB-468 (Breast Cancer); 48 h
Summary of the method: (§1)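 Cells plated 24 h before dosing, with time-zero plates TCA-fixed at drug addition; five concentrations (10-fold or ½-log dilutions) added and incubated 48 h at 37 °C, 5% CO2. Adherent cells fixed with 10% TCA, stained with 0.4% SRB, absorbance read at 515 nm; GI50, TGI and LC50 derived from percentage growth versus time zero and control.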

RPMI-8226 = RPMI-8226 (Leukemia); 48 h
Summary of the method: as §1

HT29 = HT29 (Colon Cancer); 48 h
Summary of the method: as §1

UACC-62 = UACC-62 (Melanoma); 48 h
Summary of the method: as §1

TK-10 = TK-10 (Renal Cancer); 48 h
Summary of the method: as §1

OVCAR-5 = OVCAR-5 (Ovarian Cancer); 48 h
Summary of the method: as §1

MDA-MB-231/ATCC = MDA-MB-231/ATCC (Breast Cancer); 48 h
Summary of the method: as §1

NCI/ADR-RES = NCI/ADR-RES (Ovarian Cancer); 48 h
Summary of the method: as §1

KM12 = KM12 (Colon Cancer); 48 h
Summary of the method: as §1

U251 = U251 (CNS Cancer); 48 h
Summary of the method: as §1

OVCAR-8 = OVCAR-8 (Ovarian Cancer); 48 h
Summary of the method: as §1

UO-31 = UO-31 (Renal Cancer); 48 h
Summary of the method: as §1

| Structure (SMILES) | Log10GI50 (MDA-MB-468) | Log10TGI50 (MDA-MB-468) | Log10GI50 (RPMI-8226) | Log10LC50 (RPMI-8226) | Log10TGI50 (RPMI-8226) | Log10GI50 (HT29) | Log10LC50 (HT29) | Log10TGI50 (HT29) | Log10GI50 (UACC-62) | Log10LC50 (UACC-62) | Log10TGI50 (UACC-62) | Log10GI50 (TK-10) | Log10TGI50 (TK-10) | Log10GI50 (OVCAR-5) | Log10LC50 (OVCAR-5) | Log10TGI50 (OVCAR-5) | Log10GI50 (MDA-MB-231/ATCC) | Log10LC50 (MDA-MB-231/ATCC) | Log10TGI50 (MDA-MB-231/ATCC) | Log10GI50 (NCI/ADR-RES) | other results |
| --- | --- | --- | --- | --- | --- | --- | --- | --- | --- | --- | --- | --- | --- | --- | --- | --- | --- | --- | --- | --- | --- |
| Cc1ncc(C(=O)N[C@@H](COC(F)F)C(=O)N[C@@H](COC(F)F)C(=O)N[C@@H](Cc2ccccc2)C(=O)[C@@]2(C)CO2)s1 [Example 1, 2-methyl-thiazole-5-carboxylic acid ((S)-1-{(S)-1-[(S)-1-benzyl-2-((R)-2-methyloxiranyl)-2-oxo-ethylcarbamoyl]-2-difluoromethoxyethylcarbamoyl}-2-difluoromethoxyethyl)-amide] | −6.75 | −6.32 | −7.40 | >−4.00 | −4.86 | −7.29 | −4.32 | −6.22 | −6.68 | −4.95 | −5.78 | −6.71 | −6.06 | −6.18 | −4.17 | −5.30 | −6.66 | −4.73 | −6.01 | −5.11 | Log10LC50 (NCI/ADR-RES): >−4.00; Log10TGI50 (NCI/ADR-RES): −4.23; Log10GI50 (KM12): −6.88; Log10LC50 (KM12): −6.10; Log10TGI50 (KM12): −6.49; Log10GI50 (U251): −6.55; Log10LC50 (U251): >−4.00; Log10TGI50 (U251): −4.94; Log10GI50 (OVCAR-8): −5.80; Log10LC50 (OVCAR-8): >−4.00; Log10TGI50 (OVCAR-8): >−4.00; Log10GI50 (UO-31): −5.84; Log10LC50 (UO-31): −4.59; Log10TGI50 (UO-31): −5.32 |
| CC(C)C[C@H](NC(=O)[C@H](Cc1ccccc1)NC(=O)[C@H](COC(F)F)NC(=O)CN1CCOCC1)C(=O)[C@@]1(C)CO1 [Example 25, (2S)-2-[[(2S)-3-(difluoromethoxy)-2-[(2-morpholinoacetyl)amino]propanoyl]amino]-N-[(1S)-3-methyl-1-[(2R)-2-methyloxirane-2-carbonyl]butyl]-3-phenyl-propanamide] | −7.54 | −6.96 | −7.52 | >−4.00 | −7.04 | −7.45 | >−4.00 | −5.84 | −7.35 | −4.58 | −6.63 | −7.49 | −6.07 | −7.36 | >−4.00 | −6.44 | −7.52 | −4.21 | −6.80 | −5.82 | Log10LC50 (MDA-MB-468): >−4.00; Log10LC50 (TK-10): >−4.00; Log10LC50 (NCI/ADR-RES): >−4.00; Log10TGI50 (NCI/ADR-RES): >−4.00; Log10GI50 (KM12): −7.72; Log10LC50 (KM12): −7.06; Log10TGI50 (KM12): −7.39; Log10GI50 (U251): −7.44; Log10LC50 (U251): >−4.00; Log10TGI50 (U251): −6.75; Log10GI50 (OVCAR-8): −7.32; Log10LC50 (OVCAR-8): >−4.00; Log10TGI50 (OVCAR-8): −6.41; Log10GI50 (UO-31): −6.62; Log10LC50 (UO-31): −5.17; Log10TGI50 (UO-31): −5.95 |
| C[C@]1(C(=O)[C@H](Cc2ccccc2)NC(=O)[C@H](COC(F)F)NC(=O)[C@H](COC(F)F)NC(=O)CN2CCOCC2)CO1 [Example 26, (S)-N-{(S)-1-[(S)-1-Benzyl-2-((R)-2-methyl-oxiranyl)-2-oxo-ethylcarbamoyl]-2-difluoromethoxyethyl}-3-difluoromethoxy-2-(2-morpholin-4-yl-acetylamino)-propio-namide] | −7.54 | −6.96 | −7.52 | >−4.00 | −7.04 | −7.45 | >−4.00 | −5.84 | −7.35 | −4.58 | −6.63 | −7.49 | −6.07 | −7.36 | >−4.00 | −6.44 | −7.52 | −4.21 | −6.80 | −5.82 | Log10LC50 (MDA-MB-468): >−4.00; Log10LC50 (TK-10): >−4.00; Log10LC50 (NCI/ADR-RES): >−4.00; Log10TGI50 (NCI/ADR-RES): >−4.00; Log10GI50 (KM12): −7.72; Log10LC50 (KM12): −7.06; Log10TGI50 (KM12): −7.39; Log10GI50 (U251): −7.44; Log10LC50 (U251): >−4.00; Log10TGI50 (U251): −6.75; Log10GI50 (OVCAR-8): −7.32; Log10LC50 (OVCAR-8): >−4.00; Log10TGI50 (OVCAR-8): −6.41; Log10GI50 (UO-31): −6.62; Log10LC50 (UO-31): −5.17; Log10TGI50 (UO-31): −5.95 |
| C[C@]1(C(=O)[C@H](Cc2ccccc2)NC(=O)[C@H](Cc2ccccc2)NC(=O)[C@H](COC(F)F)NC(=O)CN2CCOCC2)CO1 [Example 29] | −6.67 | −6.10 | −7.40 | >−4.00 | −6.43 | −7.31 | >−4.00 | −4.77 | −7.00 | >−4.00 | −6.37 | −6.55 | −5.10 | −6.65 | >−4.00 | −5.58 | −7.04 | −4.44 | −6.27 | −5.58 | Log10LC50 (MDA-MB-468): >−4.00; Log10LC50 (TK-10): >−4.00; Log10LC50 (NCI/ADR-RES): >−4.00; Log10TGI50 (NCI/ADR-RES): >−4.00; Log10GI50 (KM12): −7.35; Log10LC50 (KM12): −6.27; Log10TGI50 (KM12): −6.77; Log10GI50 (U251): −6.98; Log10LC50 (U251): >−4.00; Log10TGI50 (U251): −5.70; Log10GI50 (OVCAR-8): −6.59; Log10LC50 (OVCAR-8): >−4.00; Log10TGI50 (OVCAR-8): >−4.00; Log10GI50 (UO-31): −6.46; Log10LC50 (UO-31): −4.62; Log10TGI50 (UO-31): −5.71 |
